Where a SMILES comes first, the peptide text is derived from it. Bridges are numbered along the chain shown (N, C = ends).
Legend:
human VIPR2 = target: T1, human VIPR2 (Homo sapiens, UniProt P41587); test: HitHunter cAMP assay, antagonist mode; type: cell-based
T1 construct: host or cells: CHO-K1
T1 sequence (P41587 24-438): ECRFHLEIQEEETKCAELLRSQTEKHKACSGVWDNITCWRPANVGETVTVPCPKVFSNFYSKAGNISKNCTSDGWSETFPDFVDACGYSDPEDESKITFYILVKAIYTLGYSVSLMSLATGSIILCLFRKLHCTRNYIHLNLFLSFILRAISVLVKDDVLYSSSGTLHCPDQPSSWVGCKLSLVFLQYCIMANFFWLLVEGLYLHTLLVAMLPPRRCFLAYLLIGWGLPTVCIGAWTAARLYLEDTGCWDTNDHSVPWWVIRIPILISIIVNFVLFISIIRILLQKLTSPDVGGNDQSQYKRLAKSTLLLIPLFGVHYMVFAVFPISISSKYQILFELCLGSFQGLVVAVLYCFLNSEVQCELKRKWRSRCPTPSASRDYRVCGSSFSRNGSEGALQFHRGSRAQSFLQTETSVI
Experimental: Evaluation of antagonist activities of peptides against VIP-VIPR1, VIP-VIPR2, and PACAP-PAC1 signaling pathways and agonistic activity of KS-133 at VIPR2 was carried out by Eurofins DiscoverX (Fremont, CA, United States). Intracellular calcium mobilization was monitored using a calcium-sensitive dye loaded in CHO-K1 cells expressing human VIPR1 (ITEM 86-0030P-2243AN), VIPR2 (ITEM 86-0030P-2244AN), and PAC1 (ITEM 86-0030P-2066AN). The cells were preincubated with antagonistic peptides for 30 min at room temperature in the dark. After addition of the ligand at EC80, calcium mobilization was immediately monitored by FLIPR Tetra for 2 min. Cyclic AMP production in CHO-K1 cells expressing human VIPR2 was evaluated using HitHunter® cAMP assays (antagonist mode: ITEM 86-0007P-2362AN; agonist mode: ITEM 86-0007P-2362AG). […] Cells were lysed and the cAMP content of the cell lysate was determined by the β-galactosidase-based enzyme fragment complementation assay ([Eglen, 2002]). […]
FIGURE 3 Antagonistic/agonistic activities of peptides in the calcium influx and cAMP assays. […] In the calcium influx assay, after addition of ligand at EC80, calcium mobilization was monitored immediately (see details in the Methods section) (n = 4 wells for each treatment). […]
Next, antagonistic and agonistic activities of KS-133 at VIPR2 were evaluated by a cAMP assay. […]

[1] = tested on: prefrontal pyramidal neurons; test: Golgi-Cox dendritic morphology and Sholl analysis of prefrontal cortex neurons; type: in vivo, mouse
Experimental: For behavioral experiments, all litters were randomly divided into Ro 25-1553- and PBS-treated groups. From P1 to P14, mice were injected s.c. once daily with Ro 25-1553 at a dose of 0.07 nmol/g ([Ago et al., 2015]). Mice treated with PBS from P1 to P14 were used as the control. KS-133 or the vehicle was simultaneously injected with Ro 25-1553 or PBS. Animals were weaned at P21 and divided by gender at P28. We used male mice exclusively to minimize any potential variability due to sex-specific effects on behavioral performance. […]
Dendritic morphological analysis was performed on mice after the novel object recognition test and samples were collected within 10 min of dissection. […] Morphologies of apical and basal dendrites were quantified in three dimensions using the Neurolucida neuron tracing system (MBF Bioscience, Williston, VT) with the experimenter blinded to the treatment. […]
FIGURE 6 Alterations in the dendritic morphology of prefrontal pyramidal neurons in mice treated with Ro 25-1553 and KS-133 during the early postnatal period. […] The number of intersections of dendrites with 7.5-μm concentric spheres centered on the soma was measured by Sholl analysis. Results are expressed as the mean ± S.E.M. of 40 neurons from five mice per group. *p < 0.05, **p < 0.01, ***p < 0.001.

## CC[C@H](C)[C@H](NC(=O)[C@H](CC(C)C)NC(=O)[C@@H]1CC(=O)NCCCC[C@@H]2NC(=O)[C@@H]3CCCN3C(=O)[C@H](CC(C)C)NC(=O)[C@H](Cc3ccc(O)cc3)NC(=O)[C@@H]3CCCN3C(=O)[C@@H]3CCCN3C(=O)[C@@H](NC(C)=O)CSSC[C@H](NC(=O)[C@H](CC(C)C)NC(=O)[C@H](Cc3ccc(O)cc3)NC2=O)C(=O)N1)C(N)=O [KS-133, Ac-c[Cys-Pro-Pro-Tyr-Leu-Pro-c(Lys-Tyr-Leu-Cys]-Asp)-Leu-Ile-NH2] (Ac-CPPYLPKYLCDLI-NH2; disulfide 1-10; lactam 7-11)
Human VIPR2; cAMP assay
  Antagonism of VIP-VIPR2 signaling pathway: antagonized VIP-VIPR2 signaling pathway in a peptide concentration-dependent manner
Human VIPR2; ligand VIP (0.5 nM) at EC80, CHO-K1 cells, n = 4 wells, ± S.E.M
  IC50: 500 ± 79 nM
[1]; KS-133 simultaneously with Ro 25-1553, P1-14
  Effect on Ro 25-1553-induced changes in soma size, branch number and dendrite length: counteracted
[1]; KS-133 with Ro 25-1553, prefrontal cortex
  Sholl analysis, effect on Ro 25-1553-induced morphological abnormalities of apical and basal dendrites: prevented the morphological abnormalities

From PMC8607231, “Generation of KS-133 as a Novel Bicyclic Peptide with a Potent and Selective VIPR2 Antagonist Activity that Counteracts Cognitive Decline in a Mouse Model of Psychiatric Disorders” (Frontiers in Pharmacology, 2021)
